Patent publication US11497796B2, “Agents directed against a cis RGMa/neogenin interaction or lipid rafts and use of the same in methods of treatment” (UNIVERSITY HEALTH NETWORK, priority 2013, dated 2022)

B1: 4Ig: four immunoglobulin-like domains of Neogenin, amino acids 1 to 383 of Accession No. AAC59662 (SEQ ID NO:1) (protein, listed as Gallus gallus)
chain: RSGPRSPLTGSVVRTFTPFYFLVEPMDILSVRGASVIMNCSSYCETPPKIEWKKDGTLLNLVSDDRRQLLPDGSLLINSVVHSKHNKPDEGYYQCVATVESLGSIVSRTAKLTVAGLPRFTSQPELSSVYKGNSAILNCEVNVDLAPFVRWEQDRQPLSLDDRVFKLPSGALLIGNATDTDGGFYRCVIESGGTPKYSEEAELKILPDPEEPQSLVFVRQPSSLTKVTGQNAVFPCVAGGFPTPYVRWTKNGEELITEDSERFALRAGGSLLISDVTEEDVGTYTCIADNENETIEAQAELAVQVPPEFLKRPANIYAHESMDIVFECEVTGKPTPTVKWVKNGDVVIPSDYFKIVKEHNLQVLGLVKSDEGFYQCIAENDVGNAQAGAQLIILDLDVAIPTLPPTSLTSATNDHLAPATTGPLPTAPRDVVATLVSTRFIRLTWRTPVSDPQGDNLTYSIFYTKEGINRERVENTSRPGETQVMIQNLMPETVYVFRVVAQNKHGHGESSAPLKVATQPEVQLPGPAPNIRAYAGSPTSVTVTWETPLSGNGEIQNYKLYYMEKGQDSEQDVDVAGLSYTITGLKKYTEYSFRVVAYNKHGPGVSTQDVVVRTLSDVPSAAPQNLTLEARNSKSIMLHWQPPPAGTHSGQITGYKIRYRKVSRKSDVTESVGGTQLFQLIEGLERGTEYNFRIAAMTVNGTGPATDWVSAETFESDLDESRVPEVPSSLHVRPLVTSIVVSWTPPENQNIVVRGYAIGYGIGSPHAQTIKVDYKQRYYTIENLDPSSHYVITLKAFNNVGEGIPLYESAVTRPHSDTSEVDLFVINAPYTPVPDPSPMMPPVGVQASILSHDTIRITWADNSLPKNQKITDARYYTVRWKTNIPANTKYKTANATTLSYLVTGLKPNTLYEFSVMVTKGRRSSTWSMTAHGTTFELVPTSPPKDVTVVSKEGKPRTIIVNWQPPSEANGKITGYIIYYSTDVNAEIHDWVIEPVVGNRLTHQIQELTLDTPYYFKIQARNSKGMGPMSEAVQFRTPKAESSDKMPNDQASGSAGKGSRPVDVGPDYKPPLSGSNSPHGSPTSPLDSNMLLVIIVSVGVITIVIVVIVAVFCTRRTTSHQKKKRAACKSVNGSHKYKGNSKDVKPPDLWIHHERLELKPIDKSPDPNPIMTDTPIPRNSQDITPVDNSMDSNIHQRRNSYRGHESEDSMSTLAGRRGMRPKMMMPFDSQPPQPVISAHPIHSLDNPHHHFHSGSLASPTRSYLHHQVSPWPVGTSMSHSDRANSTESVRNTPSSDTMPASSSQPCADHQDPDSSSGAYLGSAQEEDAAQSLPTAHVRPSHPLKSFAVPAVPAAGSAYDPTLPSTPLLTQQAPSHPVHSVKTASIGTLGRTRPPMPVVVPSAPDVQETTRMLEDSESSYEPDELTKEMAHLEGLMKDLNAITTA
modifications: Neogenin - Accession No. AAC59662

Legend:
[1] = tested on: retinal ganglion cells (RGCs); assay: Retinal organotypic cultures (whole mounts), propidium iodide cell death; assay type: cell-based; conditions: for reduction of cell death (relative PI intensity): agent in the medium
Method: (A) HEK293 cells that stably express RGMa (FIG. 11) were transfected with empty plasmid (Ctrl) or Neogenin (Neo). Neogenin induced cell death (arrows) when compared to control. (B) Quantification of cell death in Neogenin-transfected cells that were incubated in BSA (Neo+Ctrl), 4Ig (1 μg/ml), N-Raft (1 μg/ml), Noggin (100 nM), or MβCD (10 mM). […] Data were average±SEM (n=3 independent experiments), *p<0.0001. (C) Representative images and (D) Quantification of cell death in chick E5 tecta electroporated with GFP- and a Neogenin-expression plasmid and then injected with N-RGMa50-99 (Ctrl; 1 μg/ml), 4Ig (1 μg/ml), or N-Raft (1 μg/ml) and subjected to TUNEL assay. […] Data were an average±SEM from 3 different tecta/conditions (*p<0.001). Bar, 100 μm. (E) Representative images and (F) Quantification of retinal whole mounts incubated for 4 days with control peptide (1 μg/ml), 4Ig (1 μg/ml), N-Raft (1 μg/ml), or MβCD (10 mM) and dead cells were stained with Propidium Iodide (PI). Images from 9 whole mounts per condition from 3 independent experiments were taken at the same intensities and the fluorescence measured using ImageJ. […] Bar, 500 μm. (G) Fluorescence micrographs of flat-mounted retinas depicting Fluorogold-labeled retinal ganglion cells (RGCs) in injured retinas at 14 days following axotomy. Control retinas (Ctrl) had few surviving RGCs. 4Ig, N-raft or MβCD increased cell survival. Bar, 200 μm. (H) Representations of the retinal areas selected in our analyses. […] Data were average±SEM (n=6 eyes), *p<0.01.
For this study, retinal organotypic cultures were used, in which axotomy of retinal ganglion cells (RGCs) deprived the cells of tropic factors and induced apoptosis. Cell death was detected using propidium iodide (PI) and all images were taken at the same intensity with the RGC-layer in focus. Cell death was gauged by measuring the relative PI intensity of whole mounts.

[2] = tested on: temporal retinal explants (axonal outgrowth); assay: Retinal explants outgrowth assay; assay type: cell-based, chick; conditions: for outgrowth of retinal explants grown on RGMa proteins, peptide added to medium: 5 μg/ml in the medium
Method: Poly-L-Lysine (SIGMA; 10 μg/ml) coated glass coverslips were treated with Laminin (Invitrogen; 10 μg/ml) and RGMa proteins (5 μg/ml) and incubated for 3 hours at room temperature. Temporal retinal explants were cultured on protein-coated surfaces for 18 hours. To disrupt the lipid rafts, explants were pretreated with 10 mM methyl-β-cyclodextrin (MβCD) for 12 minutes or 2 U/ml cholesterol oxidase (CO) for 1 hour at 37° C. Explants were then fixed with 4% paraformaldehyde (PFA) and stained with Alexa488-phalloidin. Fiber length was quantified using Image Pro 5.0. For immunolocalization, explants were treated with Cholera Toxin B-FITC (C1655; Sigma; 10 mg/mL) and patched, fixed and stained with Neogenin antibody. Retinal ganglion cells (RGCs) were electroporated with RGMa-His and cultured for 18 hours. The cells were fixed and stained with Neogenin and His-tag antibodies.
Retinal explants outgrowth assay. Poly-L-Lysine (PLL; SIGMA; 10 μg/ml) coated glass coverslips were treated with Laminin (10 μg/ml; Invitrogen) and RGMa proteins (5 μg) and incubated for 3 hrs at room temperature. PLL treated coverslips were coated with myelin overnight (6 μg/cm2), followed by coating with Laminin. Temporal retinal explants were cultured on either myelin or protein-coated surfaces in DMEM F-12 media (2% chick serum, 10% FBS) for 18 h. To disrupt rafts, explants were pre-treated with 10 mM MβCD for 12 min or 2 U/ml CO for 1 h at 37° C., washed, and cultured on protein coated coverslips. Explants were then fixed with 4% PFA and stained with Alexa488-fluor-phalloidin (1:50; Molecular Probes). Fiber length was quantified using Image Pro 5.0.
Statistical analysis of retinal outgrowth assays was performed using Student's two-tail t-test using Excel (Microsoft). Results were expressed as the mean±SEM (n=at least 3 independent experiments; 2 duplicates per independent experiment, >10 explants per duplicate).

[3] = tested on: retinal ganglion cells (RGCs); assay: RGC survival in vivo 14 days after axotomy; set-up: species or system rat; conditions: for increase of RGC survival vs. control / RGC survival: injected intra-ocularly, 14 days after axotomy; for RGC survival: control 361±19

| Molecule | enhancement of cell survival vs. control ([1]; perturbing lipid rafts) | axonal outgrowth on RGMa proteins after lipid raft disruption ([2]; 10 mM MβCD or 2 U/ml of CO) | increase of RGC survival ([3]; systemic application (intraperitoneal, IP)) | reduction of cell death (relative PI intensity) [1] | outgrowth of retinal explants grown on RGMa proteins, peptide added to medium [2] | effect on axonal outgrowth when provided as growth substrate (in trans) ([2]; protein as substrate) | increase of RGC survival vs. control [3] | RGC survival [3] [cells/mm^2] |
| --- | --- | --- | --- | --- | --- | --- | --- | --- |
| methyl-β-cyclodextrin [MβCD, reference compound] | about 50% | restored to control values | about 2 fold |  |  |  |  |  |
| N-Raft: peptide spanning amino acids 28-73 of RGMa (SEQ ID NO:2) (SPCKILKCNSEFWAATSGSHHLGAEETPEFCTALRAYAHCTRRTAR; N-Raft - amino acids 28-73 of RGMa) |  |  |  | about 40% | restored outgrowth | no effect | about 2 fold | 652±24 |
| B1 |  |  |  | about 40% | restored outgrowth |  | about 2 fold | 682±21 |
